Data taken from ChEMBL document CHEMBL1201862, “PubChem BioAssay data set” (2004).
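Five compound concentrations were applied to cells in 96-well plates for 48 hours; endpoints were derived by simple linear interpolation of the resulting dose-response curve. GI50: concentration for 50% inhibition of growth.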 The source made the active and inactive calls. Rule as the data show it: active = GI50 up to about 1.1 µM and inactive = higher.

Assays:
Test in all cases: growth of human tumour cells (NCI), 48 h
786-0 = system: 786-0
CCRF-CEM = system: CCRF-CEM
COLO 205 = system: COLO 205
DU-145 = system: DU-145
Hs-578T = system: Hs-578T
IGROV-1 = system: IGROV-1
K562 = system: K562
KM12 = system: KM12
NCI-H23 = system: NCI-H23
OVCAR-3 = system: OVCAR-3
RXF 393 = system: RXF 393
SF-295 = system: SF-295
SF-539 = system: SF-539
SK-MEL-5 = system: SK-MEL-5
SNB-19 = system: SNB-19
SW-620 = system: SW-620
U-251 = system: U-251
UO-31 = system: UO-31
LOX IMVI = system: LOX IMVI

Measured: GI50

COc1ccc(CCCCl)c(C2=NCCc3cc(OC)c(OC)cc32)c1
inactive: 786-0 94.8 µM | CCRF-CEM 92.5 µM | COLO 205 25.7 µM | DU-145 > 100 µM | Hs-578T 32.7 µM | IGROV-1 39.9 µM | K562 28.3 µM | KM12 38.8 µM | NCI-H23 31.5 µM | OVCAR-3 92.7 µM | RXF 393 54.7 µM | SF-295 48.5 µM | SF-539 79.3 µM | SK-MEL-5 26.1 µM | SNB-19 30 µM | SW-620 72.1 µM | U-251 23.6 µM | UO-31 38 µM

c1ccc(-c2cs[s+]c2)cc1
inactive: 786-0 > 100 µM | CCRF-CEM 22.9 µM | COLO 205 > 100 µM | DU-145 > 100 µM | Hs-578T > 100 µM | IGROV-1 > 100 µM | K562 34.2 µM | KM12 > 100 µM | LOX IMVI > 100 µM | NCI-H23 > 100 µM | OVCAR-3 67 µM | RXF 393 > 100 µM | SF-295 > 100 µM | SK-MEL-5 > 100 µM | SNB-19 > 100 µM | SW-620 49.5 µM | U-251 > 100 µM | UO-31 > 100 µM

O=c1[nH]c(=O)n(C2CC(O)C(CO)O2)cc1OCC1CCCCC1 (configuration not stated)
inactive: 786-0 > 100 µM | CCRF-CEM > 100 µM | COLO 205 > 100 µM | DU-145 > 100 µM | Hs-578T > 100 µM | IGROV-1 > 100 µM | K562 > 100 µM | KM12 > 100 µM | LOX IMVI > 100 µM | NCI-H23 > 100 µM | OVCAR-3 > 100 µM | RXF 393 > 100 µM | SF-295 > 100 µM | SK-MEL-5 > 100 µM | SNB-19 > 100 µM | U-251 > 100 µM | UO-31 > 100 µM

CCOC(=O)Cc1nc2c(N)ncnc2n1C1OC(COC(C)=O)C(OC(C)=O)C1OC(C)=O (configuration not stated)
inactive: 786-0 > 100 µM | CCRF-CEM > 100 µM | COLO 205 > 100 µM | DU-145 > 100 µM | Hs-578T > 100 µM | IGROV-1 > 100 µM | K562 > 100 µM | KM12 > 100 µM | LOX IMVI > 100 µM | NCI-H23 > 100 µM | OVCAR-3 > 100 µM | SF-295 > 100 µM | SF-539 > 100 µM | SK-MEL-5 > 100 µM | SNB-19 > 100 µM | SW-620 > 100 µM | U-251 > 100 µM | UO-31 > 100 µM

COC(=O)C(Cc1c[nH]c2ccccc12)NP(=O)(O)OCC1OC(n2ccc(N)nc2=O)C(O)C1O (configuration not stated)
inactive: 786-0 > 100 µM | CCRF-CEM 88.3 µM | COLO 205 > 100 µM | DU-145 > 100 µM | Hs-578T > 100 µM | IGROV-1 > 100 µM | K562 > 100 µM | KM12 > 100 µM | LOX IMVI > 100 µM | NCI-H23 > 100 µM | OVCAR-3 > 100 µM | SF-295 > 100 µM | SF-539 > 100 µM | SK-MEL-5 > 100 µM | SNB-19 > 100 µM | SW-620 > 100 µM | U-251 > 100 µM | UO-31 > 100 µM

Cc1nn(C(=O)c2ccncc2)c2c1C(c1ccccc1[N+](=O)[O-])SC(=N)N2 (configuration not stated)
inactive: 786-0 > 10 µM | CCRF-CEM 8.24 µM | COLO 205 > 10 µM | DU-145 > 10 µM | Hs-578T > 10 µM | IGROV-1 > 10 µM | K562 > 10 µM | KM12 > 10 µM | LOX IMVI > 10 µM | NCI-H23 > 10 µM | OVCAR-3 > 10 µM | RXF 393 > 10 µM | SF-295 > 10 µM | SF-539 > 10 µM | SK-MEL-5 > 10 µM | SNB-19 > 10 µM | SW-620 > 10 µM

CN1C(=O)c2cccc3cc([N+](=O)[O-])cc(c23)C1=O
inactive: 786-0 > 10 µM | CCRF-CEM > 10 µM | COLO 205 > 10 µM | DU-145 > 10 µM | Hs-578T > 10 µM | IGROV-1 > 10 µM | K562 > 10 µM | KM12 > 10 µM | LOX IMVI > 10 µM | NCI-H23 9.08 µM | OVCAR-3 > 10 µM | SF-295 > 10 µM | SF-539 > 10 µM | SK-MEL-5 > 10 µM | SNB-19 > 10 µM | SW-620 > 10 µM | U-251 > 10 µM

CC(=O)OCCn1c(Cc2ccc(C)cc2)nn(C(C)=O)c1=O
inactive: 786-0 > 100 µM | COLO 205 > 100 µM | DU-145 > 100 µM | Hs-578T > 100 µM | IGROV-1 > 100 µM | K562 > 100 µM | KM12 > 100 µM | LOX IMVI > 100 µM | NCI-H23 > 100 µM | OVCAR-3 > 100 µM | SF-295 > 100 µM | SF-539 > 100 µM | SK-MEL-5 > 100 µM | SNB-19 > 100 µM | SW-620 > 100 µM | U-251 > 100 µM | UO-31 > 100 µM

CC(=O)Nn1c(Cc2ccc(Cl)cc2)nn(C)c1=O
inactive: 786-0 > 100 µM | CCRF-CEM > 100 µM | COLO 205 > 100 µM | DU-145 > 100 µM | Hs-578T > 100 µM | IGROV-1 > 100 µM | K562 > 100 µM | KM12 > 100 µM | LOX IMVI > 100 µM | NCI-H23 > 100 µM | OVCAR-3 > 100 µM | SF-295 > 100 µM | SF-539 > 100 µM | SK-MEL-5 > 100 µM | SNB-19 > 100 µM | SW-620 > 100 µM | U-251 > 100 µM | UO-31 > 100 µM

O=c1[nH]c(=O)n(C2OC(CO)C(O)C(F)C2O)cc1F (configuration not stated)
inactive: 786-0 > 100 µM | CCRF-CEM > 100 µM | COLO 205 > 100 µM | DU-145 > 100 µM | Hs-578T > 100 µM | K562 > 100 µM | LOX IMVI > 100 µM | NCI-H23 > 100 µM | OVCAR-3 > 100 µM | SF-295 > 100 µM | SF-539 > 100 µM | SK-MEL-5 > 100 µM | SNB-19 > 100 µM | SW-620 > 100 µM | U-251 > 100 µM | UO-31 > 100 µM

CC(=O)Oc1ccccc1C(=O)Nc1ncc([N+](=O)[O-])s1 [NITAZOXANIDE]
inactive: 786-0 26.7 µM | COLO 205 12.7 µM | DU-145 20.1 µM | Hs-578T 9.2 µM | IGROV-1 16.3 µM | K562 55.7 µM | KM12 22 µM | LOX IMVI 21.8 µM | NCI-H23 9.73 µM | OVCAR-3 5.71 µM | RXF 393 4.42 µM | SF-295 9.91 µM | SF-539 24.8 µM | SK-MEL-5 11.9 µM | SNB-19 17.9 µM | SW-620 33.1 µM | U-251 19.4 µM | UO-31 26 µM
